# “And” between values parts separate entries of the source, which are not always exact repeats. Equal entries are not always repeated.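 1) Cells in 96-well plates. 2) Compound, 48 h, 5 concentrations. 3) Linear interpolation between surrounding doses. 4) Unreached endpoint = highest concentration. At the GI50, growth is halved. TGI is the concentration that stops growth completely.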
# Key:
# Experiment in all cases: growth of human tumour cells (NCI), 48 h
# HCT-15 colon = test system: HCT-15 colon
# NCI-H226 lung = test system: NCI-H226 lung
# NCI-H460 lung = test system: NCI-H460 lung
# 786-0 renal = test system: 786-0 renal
# HOP-62 NSCLC = test system: HOP-62 NSCLC
# SK-MEL-2 melanoma = test system: SK-MEL-2 melanoma
# K-562 leukemia = test system: K-562 leukemia
# SW-620 colon = test system: SW-620 colon
# OVCAR-8 ovarian = test system: OVCAR-8 ovarian
# LOX IMVI melanoma = test system: LOX IMVI melanoma
SMILES,GI50 (HCT-15 colon),TGI (HCT-15 colon),TGI (NCI-H226 lung),GI50 (NCI-H460 lung),TGI (NCI-H460 lung),TGI (786-0 renal),GI50 (HOP-62 NSCLC),TGI (HOP-62 NSCLC),TGI (SK-MEL-2 melanoma),TGI (K-562 leukemia),TGI (SW-620 colon),GI50 (OVCAR-8 ovarian),TGI (OVCAR-8 ovarian),GI50 (LOX IMVI melanoma),TGI (LOX IMVI melanoma),GI50 (NCI-H226 lung),GI50 (786-0 renal),GI50 (SK-MEL-2 melanoma),GI50 (K-562 leukemia),GI50 (SW-620 colon)
CC1OC(O[C@H]2/C=C/C=C/C=C/C=C/C=C/C=C/C=C/[C@H](C)[C@@H](O)[C@@H](C)[C@H](C)OC(=O)C[C@H](O)C[C@H](O)CC[C@@H](O)[C@H](O)C[C@H](O)C[C@]3(O)C[C@H](O)[C@@H](C(=O)O)[C@H](C2)O3)C(O)C(N)C1O (stereo not given in full),44.7 µM,60.9 µM,> 100 µM,19.1 µM,40.4 µM,29.2 µM,20.5 µM,42.2 µM,59.3 µM,> 100 µM,32.8 µM,33 µM,57.6 µM,15.2 µM,> 50.7 µM,–,–,–,–,–
O=C(O[C@H]1CN[C@H](C#Cc2cc3ncnc(Nc4ccc(OCc5cccc(F)c5)c(Cl)c4)c3s2)C1)N1CCOCC1,8.09 µM,> 25 µM,12 µM,6.4 µM,> 25 µM,9.66 µM,> 13 µM,> 25 µM,18.7 µM,> 25 µM,> 25 µM,7.35 µM,> 25 µM,7.72 µM,> 25 µM,5.32 µM,4.68 µM,7.4 µM,11.1 µM,12.2 µM
NCC1OC(n2cnc3c(=O)[nH]c(N)nc32)C(O)C1O (stereo not given),–,> 100 µM,> 100 µM,–,> 100 µM,> 100 µM,–,> 100 µM,> 100 µM,> 100 µM,> 100 µM,–,> 100 µM,–,> 100 µM,–,–,–,–,–
COc1cc2c(Nc3ccc(Br)cc3F)ncnc2cc1OCC1CCN(C)CC1,2.27 µM and 2.95 µM,11.5 µM and > 10 µM,18.8 µM and > 10 µM,4.69 µM and 9.98 µM,17 µM and > 10 µM,13.1 µM and > 10 µM,3.24 µM and 5.81 µM,14.6 µM and > 10 µM,10.9 µM and > 10 µM,11.8 µM and > 10 µM,15.7 µM and > 10 µM,5 µM and 7.4 µM,18 µM and > 10 µM,2.37 µM and 3.39 µM,8.83 µM and > 10 µM,5.23 µM and > 10 µM,2.96 µM and 3.01 µM,5.33 µM and > 10 µM,0.436 µM and 0.651 µM,4.69 µM and > 10 µM
O=C1CC2C(=O)C1C(C(=O)O)C2C(=O)O (stereo not given),–,> 100 µM,> 100 µM,–,> 100 µM,> 100 µM,–,> 100 µM,> 100 µM,> 100 µM,> 100 µM,–,> 100 µM,–,> 100 µM,–,–,–,–,–
ClC1(c2ccccc2)c2ccc(Br)cc2-c2cc(Br)ccc21,–,33.8 µM,36.4 µM,–,27.4 µM,30.2 µM,–,33.4 µM,32.5 µM,> 100 µM,36.3 µM,–,35.8 µM,–,33.2 µM,–,–,–,–,–
COc1ccc(-c2nc(N)c3ncn(C4OC(CO)C(O)C4O)c3n2)cc1 (stereo not given),–,> 100 µM,> 100 µM,–,> 100 µM,> 100 µM,–,> 100 µM,> 100 µM,> 100 µM,> 100 µM,–,> 100 µM,–,> 100 µM,–,–,–,–,–
CCOC(=O)/C(C#N)=C\C=C1/C=CNC2=NCCN21,–,> 100 µM,> 100 µM,–,> 100 µM,> 100 µM,–,> 100 µM,> 100 µM,> 100 µM,> 100 µM,–,> 100 µM,–,> 100 µM,–,–,–,–,–
CCC(c1ccc(OC)cc1)C(CC)c1ccc(O)c(CN2CCCC2)c1 (stereo not given),3.09 µM,10.7 µM,24.7 µM,3.41 µM,11.6 µM,5.12 µM,3.46 µM,13.4 µM,4.03 µM,5.59 µM,9.07 µM,3.08 µM,10.7 µM,2.04 µM,4.74 µM,5.9 µM,2.06 µM,1.95 µM,1.61 µM,2.99 µM

# — PubChem BioAssay (NCI)
